In patent US6534514B1, “Kappa opioid receptor antagonists” (Regents of the University of Minnesota, priority 1993, dated 2003):

How the values were obtained:
kappa opioid receptors = target: T1, kappa opioid receptors (Cavia porcellus, UniProt P41144); test: Guinea pig ileal longitudinal muscle (GPI), antagonism of ethylketazocine (EK); type: cell-based
T1 construct: a strip of longitudinal muscle with the myenteric plexus attached was prepared; from tissue; host or cells: guinea pig ileal longitudinal muscle with myenteric plexus (Dunkin-Hartley males)
T1 sequence (P41144 whole entry): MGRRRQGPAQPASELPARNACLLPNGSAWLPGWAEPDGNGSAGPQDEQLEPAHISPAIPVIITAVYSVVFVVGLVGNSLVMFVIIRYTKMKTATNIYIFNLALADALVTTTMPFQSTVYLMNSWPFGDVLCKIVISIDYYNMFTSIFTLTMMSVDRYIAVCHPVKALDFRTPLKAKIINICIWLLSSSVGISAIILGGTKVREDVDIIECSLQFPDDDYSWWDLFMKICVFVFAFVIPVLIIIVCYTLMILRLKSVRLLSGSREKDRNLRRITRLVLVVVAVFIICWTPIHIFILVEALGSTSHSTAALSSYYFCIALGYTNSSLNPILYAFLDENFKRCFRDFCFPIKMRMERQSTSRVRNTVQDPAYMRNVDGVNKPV
Description: (§1) Physiological data for guinea pig ileal longitudinal muscle (GPI) was obtained by the methodology of H. P. Rang, “Stimulant Actions of Volatile Anaesthetics on Smooth Muscle,” Brit. […] In vivo assays were done s.c. on mice.
(§2) 1. Guinea Pig Ileal Longitudinal Muscle (GPI). Ilea from guinea pigs were taken approximately 10 cm from the ileocecal junction, and a strip of longitudinal muscle with the myenteric plexus attached was prepared by the method of […] et al., Brit. […] A 1 cm portion of this strip was then mounted between two platinum electrodes placed in a 10 ml organ bath and connected to an isometric transducer; contractions were recorded on a polygraph. Contractions of the ileal strip were initiated by supramaximal rectangular pulses in all preparations (80 V of 0.5 ms duration at a frequency of 0.1 Hz). […] The organ bath was maintained at 36°-37° C. The longitudinal muscle strip was allowed to equilibrate with continuous stimulation for a minimum of 90 min. Cumulative concentration-response curves were determined after drugs were added to the bath in preselected amounts and washed out with buffer after noting their maximum effects.
(§3) Concentration-response curves were obtained in the absence (control) and the presence of the antagonist are expressed as IC50 values. The IC50 ratio represents the IC50 in the presence of the antagonist divided by the control IC50 value in the same tissue. Therefore, a high IC50 ratio represents a correspondingly high degree of antagonism at a particular receptor. This IC50 ratio was employed to calculate the Ke value using the equation Ke=[antagonist]/(IC50 ratio-1). Therefore, a low Ke represents a correspondingly high degree of binding at a particular receptor.

mu opioid receptors [1] = settings: antagonist 100 nM; agonist morphine
Description: as §1, §2, §3

mu opioid receptors [2] = target: T2, mu opioid receptors (Mus musculus, UniProt P42866); test: Mouse writhing procedure, antagonism of morphine; type: in vivo; settings: mice; agonist 50 nmol; antagonist 4 mg/kg sc
T2 construct: tested in vivo using the mouse writhing procedure of G. Hayashi et al; from tissue; host or cells: whole mouse in vivo (s.c. dosing)
T2 sequence (P42866 whole entry): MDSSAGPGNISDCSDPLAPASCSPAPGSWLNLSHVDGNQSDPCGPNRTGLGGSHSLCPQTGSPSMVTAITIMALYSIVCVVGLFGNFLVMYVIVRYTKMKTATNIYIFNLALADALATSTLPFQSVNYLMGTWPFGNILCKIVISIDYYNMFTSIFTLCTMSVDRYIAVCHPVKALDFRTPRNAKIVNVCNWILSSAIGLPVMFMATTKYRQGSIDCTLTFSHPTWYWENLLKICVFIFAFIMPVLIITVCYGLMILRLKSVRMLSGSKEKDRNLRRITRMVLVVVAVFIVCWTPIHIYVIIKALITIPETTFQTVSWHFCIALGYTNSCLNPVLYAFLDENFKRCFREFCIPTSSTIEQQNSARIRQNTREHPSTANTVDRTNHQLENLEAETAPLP
Description: (§4) Physiological data for guinea pig ileal longitudinal muscle (GPI) was obtained by the methodology of H. P. Rang, “Stimulant Actions of Volatile Anaesthetics on Smooth Muscle,” Brit. J. Pharmacol., 22, 356 (1964) on Dunkin-Hartley males; mouse vas deferens (MVD) data was obtained using Henderson's method on Swiss-Webster males (G. Henderson et al., “A New Example of a Morphine-Sensitive Neuroeffector Junction: Adrenergic Transmission in the Mouse vas Deferens,” Brit. J. Pharmacol., 46, 764 (1972). Guinea pig brain membrane binding assays were done on Dunkin-Hartley males using a modification of the method of L. L. Werling et al., “Opioid Binding to Rat and Guinea Pig Neural Membranes in the Presence of Physiological Cations at 37° C.,” J. Pharmacol. Exp. Ther., 233 722 (1985). In vivo assays were done s.c. on mice.
(§5) Compound δ was tested in vivo using the mouse writhing procedure of G. Hayashi et al., Eur. J. Pharmacol., 85, 163 (1982).

delta opioid receptors [3] = target: T3, delta opioid receptors (Mus musculus, UniProt P32300); test: Mouse writhing procedure, antagonism of DADLE; type: in vivo; settings: mice; agonist 50 nmol; antagonist 4 mg/kg sc
T3 sequence (P32300 whole entry): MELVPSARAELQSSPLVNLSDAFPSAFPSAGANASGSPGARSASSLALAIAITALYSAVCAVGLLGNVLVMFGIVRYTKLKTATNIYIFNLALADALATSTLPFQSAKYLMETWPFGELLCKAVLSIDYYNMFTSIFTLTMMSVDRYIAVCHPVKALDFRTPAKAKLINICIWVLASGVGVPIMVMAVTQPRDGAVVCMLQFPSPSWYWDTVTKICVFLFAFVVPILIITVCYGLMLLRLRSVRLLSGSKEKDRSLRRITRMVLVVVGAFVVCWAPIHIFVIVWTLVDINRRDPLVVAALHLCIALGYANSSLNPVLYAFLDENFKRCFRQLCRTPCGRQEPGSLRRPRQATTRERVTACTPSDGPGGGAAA
Description: as §4, §5

kappa receptors = target: T4, kappa receptors (Mus musculus, UniProt P33534); test: Mouse writhing procedure, antagonism of U50488H; type: in vivo, mice
T4 construct: tested in vivo using the mouse writhing procedure of G. Hayashi et al; from tissue; host or cells: whole mouse in vivo (s.c. dosing)
T4 sequence (P33534 whole entry): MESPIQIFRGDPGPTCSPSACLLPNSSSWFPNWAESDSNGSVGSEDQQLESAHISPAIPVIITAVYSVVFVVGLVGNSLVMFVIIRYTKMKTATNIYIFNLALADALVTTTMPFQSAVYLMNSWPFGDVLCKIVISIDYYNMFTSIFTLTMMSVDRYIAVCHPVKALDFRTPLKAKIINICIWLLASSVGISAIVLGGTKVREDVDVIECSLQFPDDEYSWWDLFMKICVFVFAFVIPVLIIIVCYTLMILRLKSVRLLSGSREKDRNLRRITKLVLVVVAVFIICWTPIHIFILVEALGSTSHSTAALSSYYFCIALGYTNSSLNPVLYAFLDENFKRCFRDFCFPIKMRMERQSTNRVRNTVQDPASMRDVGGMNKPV
Description: as §4, §5

delta opioid receptors [4] = target: T3, delta opioid receptors; test: Mouse vas deferens (MVD), antagonism of DADLE (D); type: cell-based; set-up: Both vasa deferentia were dissected out of mice and mounted singly; from tissue; host or cells: mouse vas deferens (Swiss-Webster males) for A3; whole mouse in vivo for A7; settings: antagonist 100 nM; agonist DADLE
Description: 2. Mouse Vas Deferens (MVD). This assay was performed according to the description by G. Henderson et al., Brit. […] Both vasa deferentia were dissected out of mice and mounted singly through two platinum ring electrodes in a 10 ml organ bath. The bath contained Krebs bicarbonate solution that was continuously bubbled with 95% O2 and 5% CO2. The organ bath was maintained at 37° C. The tissue was attached to an isometric transducer and stimulated transmurally with rectangular pulses ([…], 1 ms duration, supramaximal voltage). Drugs were added cumulatively to the bath in preselected amounts and washed out after noting their maximum effects.
as §3

Substance: 17-(Cyclopropylmethyl)-6,7-dehydro-4,5α-epoxy-3,14-dihydroxy-5-[(N^2-pentanamidino)methyl]-6,7-2′,3′-indolomorphinan Dihydrochloride [Compound 6]
- Selectivity κ/μ (kappa opioid receptors; GPI EK versus GPI morphine): 28
- Selectivity κ/δ (kappa opioid receptors; GPI EK versus MVD DADLE): 93
- kappa antagonist potency compared with norBNI (kappa opioid receptors; GPI, EK): more potent
- kappa selectivity compared with norBNI (kappa opioid receptors; GPI/MVD): more selective
- potency and selectivity compared with norBNI (kappa opioid receptors; GPI/MVD): more potent and selective
- Kb (kappa opioid receptors; antagonist 100 nM, 15 min incubation, agonist ethylketazocine, Ke=[antagonist]/(IC50 ratio-1)): 0.23 nM
- IC50 ratio, EK (GPI) (kappa opioid receptors; antagonist 100 nM, IC50 agonist + antagonist/IC50 agonist, agonist ethylketazocine): 439 ± 100
- IC50 ratio, M (GPI) (mu opioid receptors [1]): 15.7 ± 4.0
- Ke, M (GPI) (mu opioid receptors [1]): 6.80 nM
- ED50 ratio [(agonist + 6)/agonist control], morphine (mu opioid receptors [2]): 1.63
- ED50 ratio [(agonist + 6)/agonist control], DADLE (delta opioid receptors [3]): 0.25
- ED50 ratio [(agonist + 6)/agonist control], U50488H (kappa receptors; mice, agonist 50 nmol, antagonist 4 mg/kg sc): 3.77
- antagonist selectivity in the whole animal model (kappa receptors; mouse writhing, 4 mg/kg sc): selective kappa antagonist
- IC50 ratio, D (MVD) (delta opioid receptors [4]): 4.71 ± 1.06
- Ke, D (MVD) (delta opioid receptors [4]): 26.9 nM
